One test addresses T1, HiBit-BRG1 (Homo sapiens, UniProt P51532).
T1 construct: expressed in transfected cells
Kind of test: HiBit-BRG1 cell-based degradation assay (Nano-Glo HiBiT Lytic Detection). The note with it: HeLa cells expressing HiBit-BRG1 and LgBit, 24 h; for DC50: read-out: BRG1 HiBit Degradation IC50; for Dmax: read-out: BRG1 HiBit Degradation Maximum (%). The essentials: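 Seed 5000 HeLa HiBit-BRG1/LgBit cells per well; treat 24 h; equilibrate 15 min at room temperature; add Nano-Glo HiBiT lytic reagent, shake 10 min, read luminescence. Percent degradation is scaled between DMSO and 2 μM reference degrader wells.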
(HiBiT is a short tag that completes a luciferase, so light tracks the accessible tagged protein.)

In a further test the target is T2, HiBiT-BRM (Homo sapiens, UniProt P51531).
T2 construct: expressed in transfected cells
T2 sequence (P51531 whole entry): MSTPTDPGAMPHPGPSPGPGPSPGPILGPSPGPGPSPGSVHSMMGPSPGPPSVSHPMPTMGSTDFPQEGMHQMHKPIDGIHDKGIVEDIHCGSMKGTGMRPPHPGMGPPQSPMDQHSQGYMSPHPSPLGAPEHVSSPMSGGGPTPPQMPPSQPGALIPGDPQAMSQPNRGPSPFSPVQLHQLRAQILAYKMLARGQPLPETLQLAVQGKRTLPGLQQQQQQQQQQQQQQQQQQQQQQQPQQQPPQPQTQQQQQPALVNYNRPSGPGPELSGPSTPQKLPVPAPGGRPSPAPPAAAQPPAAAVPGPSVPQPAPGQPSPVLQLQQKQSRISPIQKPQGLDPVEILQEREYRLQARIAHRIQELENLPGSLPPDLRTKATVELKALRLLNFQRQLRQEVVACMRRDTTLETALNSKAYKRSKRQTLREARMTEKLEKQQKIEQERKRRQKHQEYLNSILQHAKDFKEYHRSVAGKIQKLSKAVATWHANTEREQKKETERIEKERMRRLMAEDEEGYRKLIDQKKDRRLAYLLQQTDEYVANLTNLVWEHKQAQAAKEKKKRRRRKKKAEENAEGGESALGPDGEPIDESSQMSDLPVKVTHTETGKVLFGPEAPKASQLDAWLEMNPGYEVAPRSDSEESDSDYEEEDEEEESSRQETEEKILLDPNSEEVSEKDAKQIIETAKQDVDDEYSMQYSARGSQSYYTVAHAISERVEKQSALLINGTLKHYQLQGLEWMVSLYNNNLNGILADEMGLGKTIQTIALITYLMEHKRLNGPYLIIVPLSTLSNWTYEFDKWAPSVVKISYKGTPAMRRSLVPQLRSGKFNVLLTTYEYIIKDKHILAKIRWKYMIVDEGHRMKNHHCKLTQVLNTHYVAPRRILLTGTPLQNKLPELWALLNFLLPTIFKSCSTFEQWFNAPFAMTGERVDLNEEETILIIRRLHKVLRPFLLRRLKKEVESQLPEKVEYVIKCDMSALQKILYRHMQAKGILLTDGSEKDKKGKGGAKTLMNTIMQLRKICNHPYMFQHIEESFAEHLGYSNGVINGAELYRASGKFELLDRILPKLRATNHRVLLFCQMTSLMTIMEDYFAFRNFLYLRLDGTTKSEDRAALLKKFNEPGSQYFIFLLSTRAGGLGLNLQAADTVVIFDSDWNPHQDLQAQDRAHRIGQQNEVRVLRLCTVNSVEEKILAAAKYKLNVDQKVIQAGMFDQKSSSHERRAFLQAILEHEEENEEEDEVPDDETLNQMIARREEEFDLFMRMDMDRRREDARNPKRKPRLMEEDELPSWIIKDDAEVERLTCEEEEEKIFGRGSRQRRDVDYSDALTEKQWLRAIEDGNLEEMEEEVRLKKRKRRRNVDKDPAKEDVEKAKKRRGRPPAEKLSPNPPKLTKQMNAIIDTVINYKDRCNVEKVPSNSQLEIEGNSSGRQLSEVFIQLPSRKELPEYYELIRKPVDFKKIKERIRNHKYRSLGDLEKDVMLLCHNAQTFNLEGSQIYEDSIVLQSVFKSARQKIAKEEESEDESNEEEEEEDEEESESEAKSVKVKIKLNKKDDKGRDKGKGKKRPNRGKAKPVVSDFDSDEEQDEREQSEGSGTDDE
Kind of test: HiBiT-BRM cell-based degradation assay (Nano-Glo HiBiT Lytic Detection). The settings on record: HeLa cells expressing HiBiT-BRM, 24 h; for DC50: read-out: BRM HiBit Degradation IC50. The essentials:
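Luminescence from HiBiT–LgBiT complementation in lysates of a stable HiBiT-BRM HeLa line measured after 24 h compound exposure. Degradation expressed as percent relative to DMSO-treated cells and cells given 2 μM of a known BRM/BRG1 degrader.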

Structures can show the parent of a compound that is named as a salt. Where only a bound is given, the exact number is not on record here.

T1 sequence (P51532 whole entry): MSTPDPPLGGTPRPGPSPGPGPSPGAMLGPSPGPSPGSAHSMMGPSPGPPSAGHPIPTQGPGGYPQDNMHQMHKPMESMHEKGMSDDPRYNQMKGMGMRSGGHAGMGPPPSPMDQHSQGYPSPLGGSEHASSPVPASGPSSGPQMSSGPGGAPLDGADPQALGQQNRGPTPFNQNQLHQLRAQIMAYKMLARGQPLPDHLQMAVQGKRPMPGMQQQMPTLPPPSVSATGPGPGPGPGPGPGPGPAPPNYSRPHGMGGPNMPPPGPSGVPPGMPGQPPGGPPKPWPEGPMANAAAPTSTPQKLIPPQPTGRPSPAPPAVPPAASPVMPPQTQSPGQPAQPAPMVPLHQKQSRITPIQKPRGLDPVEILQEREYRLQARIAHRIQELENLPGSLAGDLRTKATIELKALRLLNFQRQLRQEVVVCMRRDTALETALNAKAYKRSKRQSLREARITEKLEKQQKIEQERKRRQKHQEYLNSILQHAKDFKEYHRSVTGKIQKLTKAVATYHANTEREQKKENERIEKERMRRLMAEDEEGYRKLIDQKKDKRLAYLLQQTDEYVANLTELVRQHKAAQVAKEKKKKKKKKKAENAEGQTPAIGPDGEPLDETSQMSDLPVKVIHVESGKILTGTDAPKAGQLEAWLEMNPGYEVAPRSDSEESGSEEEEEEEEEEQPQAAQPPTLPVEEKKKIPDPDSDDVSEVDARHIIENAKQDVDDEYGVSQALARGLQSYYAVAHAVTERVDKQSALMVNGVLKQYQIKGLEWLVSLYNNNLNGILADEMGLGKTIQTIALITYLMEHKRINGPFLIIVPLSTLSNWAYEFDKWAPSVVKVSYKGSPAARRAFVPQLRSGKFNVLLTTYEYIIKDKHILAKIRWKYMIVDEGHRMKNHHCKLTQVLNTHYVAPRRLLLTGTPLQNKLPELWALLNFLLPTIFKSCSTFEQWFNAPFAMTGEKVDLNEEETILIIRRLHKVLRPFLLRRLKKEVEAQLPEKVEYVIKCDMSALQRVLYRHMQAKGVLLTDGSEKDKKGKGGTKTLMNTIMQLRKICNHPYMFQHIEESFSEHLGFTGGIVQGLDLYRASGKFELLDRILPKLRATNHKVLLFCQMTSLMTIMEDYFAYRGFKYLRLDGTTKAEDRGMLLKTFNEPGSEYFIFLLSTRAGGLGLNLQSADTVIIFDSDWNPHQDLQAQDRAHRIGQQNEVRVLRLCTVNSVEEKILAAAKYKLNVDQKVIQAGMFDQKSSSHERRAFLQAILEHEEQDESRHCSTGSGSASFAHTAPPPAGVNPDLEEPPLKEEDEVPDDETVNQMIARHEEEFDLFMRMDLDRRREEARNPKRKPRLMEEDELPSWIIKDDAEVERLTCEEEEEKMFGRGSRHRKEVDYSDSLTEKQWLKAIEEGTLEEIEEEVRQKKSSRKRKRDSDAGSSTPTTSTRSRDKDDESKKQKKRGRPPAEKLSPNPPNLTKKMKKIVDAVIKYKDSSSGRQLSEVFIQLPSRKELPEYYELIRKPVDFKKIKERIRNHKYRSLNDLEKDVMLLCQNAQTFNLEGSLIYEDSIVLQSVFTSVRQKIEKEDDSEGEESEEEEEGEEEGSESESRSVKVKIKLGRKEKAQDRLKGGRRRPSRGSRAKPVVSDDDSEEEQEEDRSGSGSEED

Turning to `Cc1ncsc1-c1ccc(CNC(=O)[C@@H]2C[C@@H](O)CN2C(=O)[C@@H](NC(=O)CCN2CC(C3CCN(C(=O)c4ccc(CCOc5cc(-c6ccccc6O)nnc5N)cc4)CC3)C2)C(C)(C)C)cc1` [Compound 199, (2S,4R)-1-((S)-2-(3-(3-(1-(4-(2-((3-amino-6-(2-hydroxyphenyl)pyridazin-4-yl)oxy)ethyl)benzoyl)piperidin-4-yl)azetidin-1-yl)propanamido)-3,3-dimethylbutanoyl)-4-hydroxy-N-(4-(4-methylthiazol-5-yl)benzyl)pyrrolidine-2-carboxamide], on HiBit-BRG1, the DC50 was over 1 µM and the Dmax was under 50%. For the same compound, on HiBiT-BRM, the “BRM HiBit Degradation Maximum (%)” value is “C (“C” indicates maximum degradation <50%)” and the DC50 is over 1 µM.
In the case of `Cc1nc2cccc(NCCCCCCCCNC(=O)c3ccc(CCOc4cc(-c5ccccc5O)nnc4N)cc3)c2c(=O)n1C1CCC(=O)NC1=O` (stereo not shown) [Compound 45, 4-(2-[[3-amino-6-(2-hydroxyphenyl)pyridazin-4-yl]oxy]ethyl)-N-(8-[[3-(2,6-dioxopiperidin-3-yl)-2-methyl-4-oxoquinazolin-5-yl]amino]octyl)benzamide], at HiBit-BRG1, the DC50 is over 1 µM and the Dmax is under 50%. Further, on HiBiT-BRM, the “BRM HiBit Degradation Maximum (%)” value is “C (“C” indicates maximum degradation <50%)” and the DC50 is over 1 µM.
As for `Cc1ncsc1-c1ccc(CNC(=O)[C@@H]2C[C@@H](O)CN2C(=O)[C@@H](NC(=O)COCCOCC(=O)NCc2ccc(CCOc3cc(-c4ccccc4O)nnc3N)cc2)C(C)(C)C)cc1` [Compound 164, (2S,4R)-1-((S)-1-(4-(2-((3-amino-6-(2-hydroxyphenyl)pyridazin-4-yl)oxy)ethyl)phenyl)-12-(tert-butyl)-3,10-dioxo-5,8-dioxa-2,11-diazatridecan-13-oyl)-4-hydroxy-N-(4-(4-methylthiazol-5-yl)benzyl)pyrrolidine-2-carboxamide], at HiBit-BRG1, the DC50 is over 1 µM and the Dmax was under 50%. At HiBiT-BRM, the “BRM HiBit Degradation Maximum (%)” value is on record as “B (“B” indicates maximum degradation ≥50%)” and the DC50 is over 1 µM.
As to `Cc1ncsc1-c1ccc([C@H](C)NC(=O)[C@@H]2C[C@@H](O)CN2C(=O)[C@@H](c2cc(OCCN3CC(CC(=O)NCc4ccc(CCOc5cc(-c6ccccc6O)nnc5N)cc4)C3)no2)C(C)C)cc1` [Compound 193, (2S,4R)-1-[2-[3-(2-[3-[([[4-(2-[[3-amino-6-(2-hydroxyphenyl)pyridazin-4-yl]oxy]ethyl)phenyl]methyl]carbamoyl)methyl]azetidin-1-yl]ethoxy)-1,2-oxazol-5-yl]-3-methylbutanoyl]-4-hydroxy-N-[(1S)-1-[4-(4-methyl-1,3-thiazol-5-yl)phenyl]ethyl]pyrrolidine-2-carboxamide], at HiBit-BRG1, the DC50 was over 1 µM and the Dmax was under 50%. Besides, on HiBiT-BRM, the “BRM HiBit Degradation Maximum (%)” value was “B (“B” indicates maximum degradation ≥50%)” and the DC50 is over 0.1 µM.
The like results for `Cc1ncsc1-c1ccc([C@H](C)NC(=O)[C@@H]2C[C@@H](O)CN2C(=O)[C@@H](NC(=O)CCN2CCC3(CCN(CCC(=O)NCc4ccc(CCOc5cc(-c6ccccc6O)nnc5N)cc4)CC3)CC2)C(C)(C)C)cc1` [Compound 250, (2S,4R)-1-((S)-2-(3-(9-(3-((4-(2-((3-amino-6-(2-hydroxyphenyl)pyridazin-4-yl)oxy)ethyl)benzyl)amino)-3-oxopropyl)-3,9-diazaspiro[5.5]undecan-3-yl)propanamido)-3,3-dimethylbutanoyl)-4-hydroxy-N-((S)-1-(4-(4-methylthiazol-5-yl)phenyl)ethyl)pyrrolidine-2-carboxamide] were, in that order, over 1 µM, under 50%, “B (“B” indicates maximum degradation ≥50%)” and over 1 µM.
In the same order, the values of `Cc1ncsc1-c1ccc([C@H](C)NC(=O)[C@@H]2C[C@@H](O)CN2C(=O)[C@@H](NC(=O)CCCCCCCCCC(=O)NCc2ccc(CCOc3cc(-c4ccccc4O)nnc3N)cc2)C(C)(C)C)cc1` [Compound 198, N1-(4-(2-((3-amino-6-(2-hydroxyphenyl)pyridazin-4-yl)oxy)ethyl)benzyl)-N11-((S)-1-((2S,4R)-4-hydroxy-2-(((S)-1-(4-(4-methylthiazol-5-yl)phenyl)ethyl)carbamoyl)pyrrolidin-1-yl)-3,3-dimethyl-1-oxobutan-2-yl)undecanediamide] are over 1 µM, under 50%, “A (“A” indicates maximum degradation ≥75%)” and over 0.01 µM.
Consider `CN(CCCCCOc1cccc2c1C(=O)N(C1CCC(=O)NC1=O)C2=O)Cc1ccc(CCNc2cc(-c3ccccc3O)nnc2N)cc1` (stereo not shown) [Compound 150, 4-((5-((4-(2-((3-amino-6-(2-hydroxyphenyl)pyridazin-4-yl)amino)ethyl)benzyl)(methyl)amino)pentyl)oxy)-2-(2,6-dioxopiperidin-3-yl)isoindoline-1,3-dione, formic acid salt], for which, on HiBit-BRG1, the DC50 is over 1 µM and the Dmax was under 50%. For the same compound, on HiBiT-BRM, the “BRM HiBit Degradation Maximum (%)” value was “C (“C” indicates maximum degradation <50%)” and the DC50 is over 1 µM.
Take `CN(CCc1ccc(CNC(=O)CCCCNc2cccc3nnn(C4CCC(=O)NC4=O)c(=O)c23)cc1)c1cc(-c2ccccc2O)nnc1N` (stereo not shown) [Compound 142, N-(4-(2-((3-amino-6-(2-hydroxyphenyl)pyridazin-4-yl)(methyl)amino)ethyl)benzyl)-5-((3-(2,6-dioxopiperidin-3-yl)-4-oxo-3,4-dihydrobenzo[d][1,2,3]triazin-5-yl)amino)pentanamide]: at HiBit-BRG1, the DC50 was over 1 µM and the Dmax is under 50%. Besides, on HiBiT-BRM, the “BRM HiBit Degradation Maximum (%)” value is on record as “C (“C” indicates maximum degradation <50%)” and the DC50 is over 1 µM.
Take `Cc1ncsc1-c1ccc([C@H](C)NC(=O)[C@@H]2C[C@@H](O)CN2C(=O)[C@@H](c2cc(OCCNCCCCCCCCC(=O)NCc3ccc(CCOc4cc(-c5ccccc5O)nnc4N)cc3)no2)C(C)C)cc1` [Compound 239, (2S,4R)-1-((R)-2-(3-(2-((9-((4-(2-((3-amino-6-(2-hydroxyphenyl)pyridazin-4-yl)oxy)ethyl)benzyl)amino)-9-oxononyl)amino)ethoxy)isoxazol-5-yl)-3-methylbutanoyl)-4-hydroxy-N-((S)-1-(4-(4-methylthiazol-5-yl)phenyl)ethyl)pyrrolidine-2-carboxamide]: at HiBit-BRG1, the DC50 was over 1 µM and the Dmax is under 50%. At HiBiT-BRM, the “BRM HiBit Degradation Maximum (%)” value was “A (“A” indicates maximum degradation ≥75%)” and the DC50 is over 0.1 µM.
`Nc1nnc(-c2cc(F)ccc2O)cc1OCCc1ccc(CNCCCCCOc2cccc3c2C(=O)N(C2CCC(=O)NC2=O)C3=O)cc1` (stereo not shown) [Compound 118, 4-[[5-([[4-(2-[[3-amino-6-(5-fluoro-2-hydroxyphenyl)pyridazin-4-yl]oxy]ethyl)phenyl]methyl]amino)pentyl]oxy]-2-(2,6-dioxopiperidin-3-yl)isoindole-1,3-dione;formic acid salt]: at HiBit-BRG1, the DC50 is over 1 µM and the Dmax was under 50%. Also, on HiBiT-BRM, the “BRM HiBit Degradation Maximum (%)” value is reported as “B (“B” indicates maximum degradation ≥50%)” and the DC50 is over 0.1 µM.
As to `Nc1nnc(-c2ccccc2O)cc1OCCc1ccc(CNCCCCCOc2cccc3c2C(=O)N(C2CCC(=O)NC2=O)C3=O)cc1` (stereo not shown) [Compound 9, 4-[[5-([[4-(2-[[3-amino-6-(2-hydroxyphenyl)pyridazin-4-yl]oxy]ethyl)phenyl]methyl]amino)pentyl]oxy]-2-(2,6-dioxopiperidin-3-yl)isoindole-1,3-dione], the DC50 at HiBit-BRG1 is over 1 µM. Besides, on HiBiT-BRM, the “BRM HiBit Degradation Maximum (%)” value is listed as “A (“A” indicates maximum degradation ≥75%)” and the DC50 was over 0.1 µM.
As to `Cc1ncsc1-c1ccc([C@H](C)NC(=O)[C@@H]2C[C@@H](O)CN2C(=O)[C@@H](c2cc(OCCN3CCN(CCC(=O)NCc4ccc(CCOc5cc(-c6ccccc6O)nnc5N)cc4)CC3)no2)C(C)C)cc1` [Compound 175, (2S,4R)-1-[(2R)-2-[3-(2-[4-[2-([[4-(2-[[3-amino-6-(2-hydroxyphenyl)pyridazin-4-yl]oxy]ethyl)phenyl]methyl]carbamoyl)ethyl]piperazin-1-yl]ethoxy)-1,2-oxazol-5-yl]-3-methylbutanoyl]-4-hydroxy-N-[(1S)-1-[4-(4-methyl-1,3-thiazol-5-yl)phenyl]ethyl]pyrrolidine-2-carboxamide], at HiBit-BRG1, the DC50 was over 0.1 µM and the Dmax was over 50%. For the same compound, on HiBiT-BRM, the “BRM HiBit Degradation Maximum (%)” value is listed as “A (“A” indicates maximum degradation ≥75%)” and the DC50 was over 0.01 µM.
In the case of `Nc1nnc(-c2ccccc2O)cc1OCCc1ccc(C(=O)NCCCCCC(=O)NCc2ccc(S(=O)(=O)Nc3cccc4c(Cl)c[nH]c34)cc2)cc1` [Compound 14, 6-[[4-(2-[[3-amino-6-(2-hydroxyphenyl)pyridazin-4-yl]oxy]ethyl)phenyl]formamido]-N-([4-[(3-chloro-1H-indol-7-yl)sulfamoyl]phenyl]methyl)hexanamide], at HiBit-BRG1, the DC50 was over 1 µM and the Dmax was under 50%. Further, on HiBiT-BRM, the “BRM HiBit Degradation Maximum (%)” value is on record as “C (“C” indicates maximum degradation <50%)” and the DC50 is over 1 µM.
As to `Nc1nnc(-c2ccccc2O)cc1NCCc1ccc(CNC(=O)CCCCOc2cccc3c2C(=O)N(C2CCC(=O)NC2=O)C3=O)cc1` (stereo not shown) [Compound 147, N-(4-(2-((3-amino-6-(2-hydroxyphenyl)pyridazin-4-yl)amino)ethyl)benzyl)-5-((2-(2,6-dioxopiperidin-3-yl)-1,3-dioxoisoindolin-4-yl)oxy)pentanamide], at HiBit-BRG1, the DC50 was over 1 µM and the Dmax was under 50%. Moreover, at HiBiT-BRM, the “BRM HiBit Degradation Maximum (%)” value is given as “C (“C” indicates maximum degradation <50%)” and the DC50 is over 1 µM.

Source of the values: patent US20230150974A1 (Foghorn Therapeutics Inc., priority 2020, published 2023).
